{
  "source": "patent US20120148718A1",
  "about": "“METHOD FOR CONDITIONING ANIMAL FEED” (priority 2009, published 2012)",
  "assay": "Surface tension of 5% solutions in water (Fisher Surface Tensiomat Model 21)",
  "type": "physicochemical",
  "conditions": "surfactants, Table 2",
  "method": "The surface tensions of various organic acids and different formulations of the present invention were determined. Solutions were diluted to 5% in water and tested using a Fisher Surface Tensiomat Model 21.\nPolysorbate-80 is allowed only for use in milk replacers and not for feed application. In the European Union ethoxylated castor oil surfactant is allowed for use in all animals. In order to determine a suitable surfactant to replace polysorbate-80, the surface tensions of different PEG ethoxylated castor oil surfactants were tested in 5% solutions.\nThe two best formulations from Example 1 were prepared using polysorbate-80 or castor oil PEG-60. The surface tension of 5% solutions of each formulation in water was determined.",
  "data": [
    {"substance": "Polysorbate-80", "values": [
      {"measurement": "Surface Tension", "value": 40.57, "unit": "dynes/cm"}
    ]}
  ]
}
